Experiments:
[1] = tested on: peripheral blood monocytes; conditions: utilizing formyl peptide receptor-like 1 (FPRL1) (De, Chen et al. 2000); cited from earlier work
mast cells = mast cells (Niyonsaba, Someya et al. 2001); cited from earlier work
neutrophils = conditions: Agerberth, Charo et al. 2000; De, Chen et al. 2000; cited from earlier work
CD4+ T cells = conditions: Agerberth, Charo et al. 2000; De, Chen et al. 2000; cited from earlier work
[2] = tested on: immature and mature dendritic cells; conditions: Yang, Chen et al. 2001; cited from earlier work
[3] = tested on: human CD1a positive dendritic cells; test: TRANSloading of human dendritic cells with MHC class I and MHC class II peptides by LL-37; type: cell-based
Description: To compare the efficiency of peptide delivery of these diverse “carrier-peptides”, the amount of peptide uptake into APCs was monitored by incubating P388D1 cells (murine monocyte-macrophage antigen presenting cell line; purchased from ATCC (TIB-63), or human CD1a positive (derived from human HLA-A2 positive donors, CD14+ positive PBMCS) dendritic cells, for 1 h at 37° C. with a constant amount of fuorescein-tagged peptide alone or in combination with diverse “carrier-peptides” at concentrations indicated. Before analysing the cells by flow cytometry, the cells were washed extensively to remove free peptide. The relative amount of fluorescein-tagged peptide taken up by the cells was measured by flow-cytometry.
FIG. 8a • (1) no peptide (cells alone) • (2) 2.5 μg FL-[…] (SEQ ID NO:23) (MHC class I; peptide alone) • (3) 2.5 μg FL-[…] (SEQ ID NO:23) (MHC class I)+30 μg LL-37 (SEQ ID:2)
FIG. 8b • (1) no peptide (cells alone) • (2) 2.5 μg FL-[…] (SEQ ID NO:24) (MHC class II; peptide alone) • (3) 2.5 μg FL-[…] (SEQ ID NO:24) (MHC class II)+30 μg LL-37 (SEQ ID:2)

[4] = tested on: P388D1 cells (murine monocyte-macrophage antigen presenting cell line); test: TRANSloading assay: uptake of fluorescein-tagged antigenic peptide into P388D1 cells with carrier-peptides, flow cytometry; type: cell-based; conditions: for uptake of antigens in dendritic cells: summary statement, cells of mice
[5] = tested on: IFN-γ-producing specific cells (TRP-2 181-188 VYDFFVWL); test: IFN-γ ELISpot after vaccination of mice with TRP-2 peptide plus carrier-peptide; type: in vivo, mice (C57BL/6); conditions: s.c. days 0, 7, 14, 100 μg VYDFFVWL + carrier-peptide, two weeks after 3rd vaccination, versus peptide alone or peptide plus poly-L-arginine; for IFN-γ-producing specific cells, splenocytes: FIG. 10
Description: The groups of mice were injected as follows (amounts indicated/per mouse). • (1) 100 μg […] (SEQ ID NO:25) • (2) 100 μg […] (SEQ ID NO:25)+100 μg poly-L-arginine • (3) 100μ […] (SEQ ID NO:25)+[…] cathelicidin derived antimicrobial peptide (SEQ ID NO:1) • (4) 100 μg […] (SEQ ID NO:25)+500 μg bovine indolicidin (SEQ ID NO:3)
Two weeks after the 3rd vaccination, draining (inguinal) lymph nodes and spleens were removed and […].

tumor growth = conditions: co-injection with an appropriate peptide as a vaccine, mouse models (Schmidt, Buschle et al. 1997); cited from earlier work

Substance: LL-37: human cathelicidin derived antimicrobial peptide, C-terminal domain of hCAP-18 (LLGDFFRKSKEKIGKEFKRIVQRIKDFLRNLVPRTES)
- chemotaxis of peripheral blood monocytes [1]: induces chemotaxis
- histamine release (mast cells): shown to induce
- intracellular calcium mobilization (mast cells): shown to induce
- chemotactic activity for neutrophils (neutrophils): exert chemotactic activity
- chemotactic activity for CD4+ T cells (CD4+ T cells): exert chemotactic activity
- chemotactic activity for immature and mature dendritic cells [2]: no chemotactic activity
- pulsing of human dendritic cells with MHC class I antigenic peptide ([3]; FIG. 8a, 2.5 μg FL-[…] + 30 μg LL-37): to a significant extent
- pulsing of human dendritic cells with MHC class II antigenic peptide ([3]; FIG. 8b, 2.5 μg FL-[…] + 30 μg LL-37): to a significant extent
- uptake of antigens in dendritic cells ([3]; summary statement, cells of men): enhance the uptake of antigens

Substance: NH2-ILPWKWPWWPWRR-CONH2 [bovine indolicidin]
- uptake of antigens in dendritic cells [4]: enhance the uptake of antigens
- IFN-γ-producing specific cells, lymph node cells ([5]; FIG. 9): more IFN-γ-producing specific cells
- IFN-γ-producing specific cells, splenocytes [5]: more IFN-γ-producing specific cells

Substance: PR-39: porcine proline-arginine-rich 39-amino-acid cathelicidin peptide (RRRPRPPYLPRPRPPPFFPPRLPPRIPPGFPPRFPPRFPGKR) [reference compound]
- chemotactic activity for neutrophils (neutrophils): exert chemotactic activity

Substance: bovine dodecapeptide: bovine cathelicidin derived antimicrobial dodecapeptide, SEQ ID NO:4, linear form in Example 3 (RLCRIVVIRVCR)
- pulsing effect with increasing amounts of carrier-peptide ([4]; Example 3, FIG. 6, 2 μg FL-LFEAIEGFI + 18.75, 37.5, 75, 150 μg linear bovine dodecapeptide): increased significantly
- uptake of antigens in dendritic cells [4]: enhance the uptake of antigens

Substance: murine cathelicidin derived antimicrobial peptide: murine cathelin-related antimicrobial peptide, SEQ ID NO:1 (SRLAGLLRKGGEKIGEKLKKIGQKIKNFFQKL)
- uptake of antigens in dendritic cells [4]: enhance the uptake of antigens
- IFN-γ-producing specific cells, splenocytes [5]: more IFN-γ-producing specific cells

Substance: poly-L-arginine
- protection from tumor growth (tumor growth): protects animals from tumor growth

Substance: poly-L-lysine
- protection from tumor growth (tumor growth): protects animals from tumor growth

From patent publication US7658928B2, “Method of vaccination comprising administering an antigen and a cathelicidin derived antimicrobial peptide” (Intercell AG, priority 2000, dated 2010)
